Measured values reported in article PMC6201908, “Affinity, potency, efficacy, and selectivity of neurokinin A analogs at human recombinant NK2 and NK1 receptors” (PLoS ONE, 2018).
Like-named read-outs stand apart in the source and are kept apart here. Non-standard residues stand in square brackets, D forms with d. Residues, ends and D or L forms follow the SMILES beside them. NMeL = CN[C@@H](CC(C)C)C(=O)O; Nle = CCCC[C@H](N)C(=O)O; βAla = NCCC(=O)O

Columns and labels:
[1] = target: T1, human recombinant NK2 receptors (Homo sapiens, UniProt P21452); test: cell-based; details: for NK1/NK2 ratio of EC50s for intracellular calcium response: NK1 EC50 / NK2 EC50
T1 sequence (P21452 1-398): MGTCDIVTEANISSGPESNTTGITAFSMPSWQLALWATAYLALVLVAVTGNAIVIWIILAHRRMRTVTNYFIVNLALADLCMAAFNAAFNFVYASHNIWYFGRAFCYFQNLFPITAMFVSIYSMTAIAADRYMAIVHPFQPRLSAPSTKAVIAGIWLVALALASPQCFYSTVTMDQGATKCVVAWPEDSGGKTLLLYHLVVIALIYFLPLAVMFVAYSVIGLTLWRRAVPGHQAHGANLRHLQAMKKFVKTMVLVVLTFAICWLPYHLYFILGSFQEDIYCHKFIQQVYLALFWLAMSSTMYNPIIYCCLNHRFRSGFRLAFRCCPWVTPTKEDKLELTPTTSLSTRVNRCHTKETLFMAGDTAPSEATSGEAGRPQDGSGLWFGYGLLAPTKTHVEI
Description: (§1) Human recombinant NK2 and NK1 receptors were generated using stably transfected CHO cells (CHO-hNK2 and CHO-hNK1, respectively). Human NK2 or NK1 receptor expressing vectors from Genecopeia (Rockville, USA) were transfected in CHO cells using the standard FuGENE protocol and cells were selected using 450 μg/mL geneticin (G418). Clones expressing the receptors were selected by functional coupling to calcium using FLIPR and a single clone for each receptor subtype was selected for expansion and stable cell line generation. Cells were cultured in a humidified incubator with 5% CO2 in F12K medium containing 10% heat inactivated FBS and 450 μg/mL geneticin and passaged on reaching 80–90% confluence.
(§2) The agonist efficacy of the test compounds at recombinant human NK1 or NK2 receptors expressed in CHO cells was assessed by measuring the intracellular calcium response using the calcium-sensitive dye Fluo-4 AM (Eugene, OR, USA) and a Fluorometric Imaging Plate Reader (FLIPR, Molecular Devices, CA, USA). CHO-hNK1 and CHO-hNK2 cells were seeded into black walled clear-bottom 384-well plates at a density of 10,000 and 15,000 cells per well in 50 μL culture media, respectively, and grown overnight at 37°C in a humidified CO2-incubator. Cells were washed in washing buffer using an EMBLA 384 plate washer, leaving 20 μL of buffer per well after the final aspiration. Cells were then incubated at 37°C with the cytoplasmic Ca^2+ indicator Fluo-4 AM (final concentration 1 μM) in assay buffer (20 mM HEPES, 145 mM NaCl, 5 mM KCl, 5.5 mM glucose, 1 mM MgCl2 and 2 mM CaCl2, pH 7.4, 0.05% Pluronic F-127 and 0.1% BSA) containing 2.5 mM probenecid for 45–60 min (cell loading). Cells were then washed 3 times in washing buffer (20 mM HEPES, 145 mM NaCl, 5 mM KCl, 5.5 mM glucose, 1 mM MgCl2 and 2 mM CaCl2, pH 7.4 and 2.5 mM probenecid) using an EMBLA 384 plate washer, leaving 30 μL of buffer in each well after the last wash. Loaded cell plates were transferred to the FLIPR and calcium responses were monitored as described below. […] Concentration response curves of test compounds were generated in duplicate on at least two different occasions from the same stock solutions. Test solutions were prepared from 10 mM stock solutions in DMSO and 1 μL of each solution was stamped into V-bottom assay plates containing 49 μL assay buffer. The final concentration of DMSO was 0.5% in each well.

[2] = target: T2, human recombinant NK1 receptors (Homo sapiens, UniProt P25103); test: cell-based
Description: as §1, §2

[3] = target: T1, human recombinant NK2 receptors; test: Displacement of [^125I]-NKA binding to CHO-hNK2 membranes
[4] = target: T2, human recombinant NK1 receptors; test: Displacement of [^3H]-Septide binding to CHO-hNK1 membranes (septide site); details: for [^3H]-Septide binding pKi / [^3H]-Septide binding Slope: 5.0 nM [^3H]-Septide, 23°C, 1 h, mean ± SD; for [^3H]-Septide binding pKi: CHO-hNK1 membranes 20 μg/well; for [^3H]-Septide binding Slope: Hill slope of displacement curve
Description: Protein expression was induced by addition of 5 mM sodium butyrate to the culture medium. […] The cell suspension was collected, placed on ice and centrifuged for 5 min at 4°C and 1200 rpm in a Beckman GS6R centrifuge. After removal of the supernatant the cell pellet was washed and collected by re-suspension in PBS and centrifugation. The final pellet was weighed and frozen at -80°C until use. Frozen pellets were thawed and homogenized in 10 volumes (w/v) of membrane preparation buffer (50 mM HEPES pH 7.4, 1 mM EDTA, 50 μg/mL bacitracin and protease inhibitors) using a Polytron Ultraturrax (twice for 15 s per cycle). The homogenate was centrifuged for 20 min at 4°C and 18500 rpm in a SL-50T Sorvall rotor and the pellet was re-suspended in membrane preparation buffer and re-homogenized as before. After centrifugation for 20 min at 4°C and 18500 rpm, the pellets were re-suspended in 5 volumes of membrane preparation buffer and divided into aliquots before freezing at -80°C. Protein concentration was determined using BioRad Protein Assay (Milan, Italy) with a BSA standard curve. Stock solutions of test compounds (10 mM) were prepared in DMSO and stored at -20°C until use. […] The goodness of fit between One-Site and Two-Site models was examined using Akaike's Information Corrected Criteria (AICC; [23]) in SAS v9.4 (SAS Institute, Cary NC) in order to select the best model for the data generated. […] Data from displacement experiments were plotted as the log [inhibitor concentration] (X axis) versus response expressed as TB in cpm (Y axis).

[5] = Intracellular Ca^2+ pEC50, CHO-hNK2 cells, mean ± SD
[6] = NK2 EC50 intracellular calcium response, CHO-hNK2 cells
[7] = Intracellular Ca^2+ pEC50, CHO-hNK1 cells, mean ± SD
[8] = NK1 EC50 intracellular calcium response, CHO-hNK1 cells
[9] = CHO-hNK2 cells, % of maximal response observed with NKA, mean ± SD
[10] = CHO-hNK1 cells, % of maximal response observed with substance P, mean ± SD

T2 sequence (P25103 whole entry): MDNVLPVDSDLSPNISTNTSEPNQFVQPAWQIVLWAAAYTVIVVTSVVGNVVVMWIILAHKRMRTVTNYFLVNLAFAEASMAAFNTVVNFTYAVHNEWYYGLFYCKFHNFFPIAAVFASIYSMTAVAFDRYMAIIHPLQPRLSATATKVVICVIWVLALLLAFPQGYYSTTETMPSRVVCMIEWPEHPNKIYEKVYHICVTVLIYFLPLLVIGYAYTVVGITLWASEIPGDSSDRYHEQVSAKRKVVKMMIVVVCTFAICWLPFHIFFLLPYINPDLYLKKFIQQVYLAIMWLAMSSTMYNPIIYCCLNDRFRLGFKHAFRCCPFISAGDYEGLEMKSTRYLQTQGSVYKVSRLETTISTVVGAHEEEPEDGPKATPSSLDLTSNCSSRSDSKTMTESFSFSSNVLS

SMILES | Intracellular Ca^2+ % Max [1] | EC50 [1, 5] | EC50 [1, 6] | Intracellular Ca^2+ % Max [2] | EC50 [2, 7] | EC50 [2, 8] | also measured
CCCC[C@H](NC(=O)[C@H](CC(C)C)NC(=O)CCNC(=O)[C@@H](NC(=O)[C@H](Cc1ccccc1)NC(=O)[C@H](CCCNC(=N)N)NC(=O)[C@@H](N)CC(=O)O)C(C)C)C(N)=O [[Arg^5,β-Ala^8,Nle^10]-NKA(4–10), Asp-Arg-Phe-Val-[β-Ala]-Leu-Nle-NH2] (H-DRFV[βAla]L[Nle]-NH2) | 81.4 ± 1.2% | 1.15 nM | 1.16 nM | 104.9 ± 13.2% | 29.5 nM | 29.5 nM | 
CSCC[C@H](NC(=O)[C@H](CC(C)C)NC(=O)CCNC(=O)[C@@H](NC(=O)[C@H](Cc1ccccc1)NC(=O)[C@H](CCCNC(=N)N)NC(=O)[C@@H](N)CC(=O)O)C(C)C)C(N)=O [[Arg^5,β-Ala^8]-NKA(4–10), Asp-Arg-Phe-Val-[β-Ala]-Leu-Met-NH2] (H-DRFV[βAla]LM-NH2) | 106.9 ± 8.9% | 0.151 nM | 0.15 nM | 101.5 ± 18.4% | 1.82 nM | 1.83 nM | 
CSCC[C@H](NC(=O)[C@H](CC(C)C)N(C)C(=O)CNC(=O)[C@@H](NC(=O)[C@H](Cc1ccccc1)NC(=O)[C@H](CCCCN)NC(=O)[C@@H](N)CC(=O)O)C(C)C)C(N)=O [[Lys^5,MeLeu^9]-NKA(4–10), Asp-Lys-Phe-Val-Gly-(NMe-Leu)-Met-NH2] |  | 0.145 nM |  |  |  |  | NK1/NK2 ratio of Ki values [3]: 251; [^125I]-NKA binding Slope [3]: -0.84 ± 0.06; [^125I]-NKA binding pKi [3]: 9.70 ± 0.16; [^3H]-Septide binding pKi [4]: 7.30 ± 0.16; [^3H]-Septide binding Slope [4]: -0.89 ± 0.01; Intracellular Ca^2+ % Max [1, 9]: 88.2 ± 11.4%; NK1/NK2 ratio of EC50s for intracellular calcium response [1]: 7; Intracellular Ca^2+ % Max [2, 10]: 106.7 ± 5.7%; Intracellular Ca^2+ pEC50 ([2]; CHO-hNK1 cells, mean ± SD): 9.02 ± 0.39
CCCC[C@H](NC(=O)[C@H](CC(C)C)N(C)C(=O)CNC(=O)[C@@H](NC(=O)[C@H](Cc1ccccc1)NC(=O)[C@H](CCCNC(=N)N)NC(=O)[C@@H](N)CC(=O)O)C(C)C)C(N)=O [[Arg^5,MeLeu^9,Nle^10]-NKA(4-10), Asp-Arg-Phe-Val-Gly-(NMe-Leu)-Nle-NH2] (H-DRFVG[NMeL][Nle]-NH2; N-terminus assumed) |  | 0.0832 nM |  |  |  |  | [^125I]-NKA binding pKi ([3]; 0.1 nM [^125I]-NKA, CHO-hNK2 membranes 6 μg/well, 23°C, 3 h, mean ± SD): 9.23 ± 0.19; [^125I]-NKA binding Slope ([3]; Hill slope of displacement curve, 0.1 nM [^125I]-NKA, 23°C, 3 h, mean ± SD): -0.86 ± 0.09; NK1/NK2 ratio of Ki values ([3]; NK1 [^3H]-Septide Ki / NK2 [^125I]-NKA Ki): 561; Fold more selective for NK2 over septide site of NK1 receptor compared with NKA (binding) ([3]; from Ki ratios): more than 28 fold; [^3H]-Septide binding pKi [4]: 6.48 ± 0.05; [^3H]-Septide binding Slope [4]: -0.89 ± 0.13; Ki ([4]; displacement of [^3H]-Septide binding, read-out: NK1 [^3H]-Septide Ki): 331 nM; Intracellular Ca^2+ % Max [1, 9]: 89.0 ± 15.5%; NK1/NK2 ratio of EC50s for intracellular calcium response [1]: 70; Intracellular Ca^2+ % Max [2, 10]: 100.4 ± 1.5%; Intracellular Ca^2+ pEC50 ([2]; CHO-hNK1 cells, mean ± SD): 8.23 ± 0.32; Difference between pEC50 and pKi values ([2]; NK1 receptors, calcium response vs [^3H]-Septide binding): 56 fold
CSCC[C@H](NC(=O)[C@H](CC(C)C)NC(=O)CNC(=O)[C@@H](NC(=O)[C@H](Cc1ccccc1)NC(=O)[C@H](CCCCN)NC(=O)[C@@H](N)CC(=O)O)C(C)C)C(N)=O [[Lys^5]-NKA(4–10), Asp-Lys-Phe-Val-Gly-Leu-Met-NH2] |  | 0.0891 nM | 0.09 nM |  | 0.417 nM | 0.41 nM | 
CCCC[C@H](NC(=O)[C@H](CC(C)C)NC(=O)CCNC(=O)[C@@H](NC(=O)[C@H](Cc1ccccc1)NC(=O)[C@H](CCCCN)NC(=O)[C@@H](N)CC(=O)O)C(C)C)C(N)=O [[Lys^5,β-Ala^8,Nle^10]-NKA(4–10), Asp-Lys-Phe-Val-[β-Ala]-Leu-Nle-NH2] (H-DKFV[βAla]L[Nle]-NH2) | 83.1 ± 25.5% | 3.02 nM | 3 nM | 107.0 ± 14.0% | 77.6 nM | 78.2 nM | 
CSCC[C@H](NC(=O)[C@H](CC(C)C)NC(=O)CNC(=O)[C@@H](NC(=O)[C@H](Cc1ccccc1)NC(=O)[C@H](CCCNC(=N)N)NC(=O)[C@@H](N)CC(=O)O)C(C)C)C(N)=O [[Arg^5]-NKA(4–10), Asp-Arg-Phe-Val-Gly-Leu-Met-NH2] (H-DRFVGLM-NH2) |  | 0.191 nM | 0.19 nM |  | 0.155 nM | 0.16 nM | 
CSCC[C@H](NC(=O)[C@H](CC(C)C)NC(=O)CCNC(=O)[C@@H](NC(=O)[C@H](Cc1ccccc1)NC(=O)[C@H](CCCCN)NC(=O)[C@@H](N)CC(=O)O)C(C)C)C(N)=O [[Lys^5,β-Ala^8]-NKA(4–10), Asp-Lys-Phe-Val-[β-Ala]-Leu-Met-NH2] (H-DKFV[βAla]LM-NH2) | 92.0 ± 3.8% | 0.174 nM | 0.18 nM | 105.8 ± 3.4% | 6.31 nM | 6.31 nM | 
CCCC[C@H](NC(=O)[C@H](CC(C)C)NC(=O)CNC(=O)[C@@H](NC(=O)[C@H](Cc1ccccc1)NC(=O)[C@H](CCCNC(=N)N)NC(=O)[C@@H](N)CC(=O)O)C(C)C)C(N)=O [[Arg^5,Nle^10]-NKA(4–10), Asp-Arg-Phe-Val-Gly-Leu-Nle-NH2] (H-DRFVGL[Nle]-NH2) |  | 0.2 nM | 0.2 nM |  | 1.7 nM | 1.71 nM | 
CSCC[C@H](NC(=O)[C@H](CC(C)C)NC(=O)CNC(=O)[C@@H](NC(=O)[C@H](Cc1ccccc1)NC(=O)[C@H](CO)NC(=O)[C@@H](N)CC(=O)O)C(C)C)C(N)=O [NKA(4–10), Asp-Ser-Phe-Val-Gly-Leu-Met-NH2] |  | 1.02 nM | 1.02 nM | 117.4 ± 12.8% |  |  | Ki ([3]; [^125I]-NKA binding pKi): 2.34 nM
CCCC[C@H](NC(=O)[C@H](CC(C)C)NC(=O)CNC(=O)[C@@H](NC(=O)[C@H](Cc1ccccc1)NC(=O)[C@H](CCCCN)NC(=O)[C@@H](N)CC(=O)O)C(C)C)C(N)=O [[Lys^5,Nle^10]-NKA(4–10), Asp-Lys-Phe-Val-Gly-Leu-Nle-NH2] |  | 0.38 nM | 0.38 nM |  | 2.34 nM | 2.36 nM | 
